From paper PMC10818931, “In Vitro Evaluation of Drug–Drug Interaction Potential of Epetraborole, a Novel Bacterial Leucyl-tRNA Synthetase Inhibitor” (Pharmaceuticals, 2024)
Converted amounts (≈) assume the structure as drawn. Like-named read-outs stand apart in the source and are kept apart here.

Columns and labels:
P-gp = P-gp (Homo sapiens, UniProt P08183); test: Substrate potential for P-gp, bidirectional permeability in MDR1-MDCK; assay type: in vitro ADME; conditions: for Concentration in the receiver compartment: 5 µM, MDR1-MDCK and MDCK cells, A to B and B to A, Papp and efflux ratio could not be calculated; for as a Substrate: P-gp
P-gp, sequence (P08183 whole entry): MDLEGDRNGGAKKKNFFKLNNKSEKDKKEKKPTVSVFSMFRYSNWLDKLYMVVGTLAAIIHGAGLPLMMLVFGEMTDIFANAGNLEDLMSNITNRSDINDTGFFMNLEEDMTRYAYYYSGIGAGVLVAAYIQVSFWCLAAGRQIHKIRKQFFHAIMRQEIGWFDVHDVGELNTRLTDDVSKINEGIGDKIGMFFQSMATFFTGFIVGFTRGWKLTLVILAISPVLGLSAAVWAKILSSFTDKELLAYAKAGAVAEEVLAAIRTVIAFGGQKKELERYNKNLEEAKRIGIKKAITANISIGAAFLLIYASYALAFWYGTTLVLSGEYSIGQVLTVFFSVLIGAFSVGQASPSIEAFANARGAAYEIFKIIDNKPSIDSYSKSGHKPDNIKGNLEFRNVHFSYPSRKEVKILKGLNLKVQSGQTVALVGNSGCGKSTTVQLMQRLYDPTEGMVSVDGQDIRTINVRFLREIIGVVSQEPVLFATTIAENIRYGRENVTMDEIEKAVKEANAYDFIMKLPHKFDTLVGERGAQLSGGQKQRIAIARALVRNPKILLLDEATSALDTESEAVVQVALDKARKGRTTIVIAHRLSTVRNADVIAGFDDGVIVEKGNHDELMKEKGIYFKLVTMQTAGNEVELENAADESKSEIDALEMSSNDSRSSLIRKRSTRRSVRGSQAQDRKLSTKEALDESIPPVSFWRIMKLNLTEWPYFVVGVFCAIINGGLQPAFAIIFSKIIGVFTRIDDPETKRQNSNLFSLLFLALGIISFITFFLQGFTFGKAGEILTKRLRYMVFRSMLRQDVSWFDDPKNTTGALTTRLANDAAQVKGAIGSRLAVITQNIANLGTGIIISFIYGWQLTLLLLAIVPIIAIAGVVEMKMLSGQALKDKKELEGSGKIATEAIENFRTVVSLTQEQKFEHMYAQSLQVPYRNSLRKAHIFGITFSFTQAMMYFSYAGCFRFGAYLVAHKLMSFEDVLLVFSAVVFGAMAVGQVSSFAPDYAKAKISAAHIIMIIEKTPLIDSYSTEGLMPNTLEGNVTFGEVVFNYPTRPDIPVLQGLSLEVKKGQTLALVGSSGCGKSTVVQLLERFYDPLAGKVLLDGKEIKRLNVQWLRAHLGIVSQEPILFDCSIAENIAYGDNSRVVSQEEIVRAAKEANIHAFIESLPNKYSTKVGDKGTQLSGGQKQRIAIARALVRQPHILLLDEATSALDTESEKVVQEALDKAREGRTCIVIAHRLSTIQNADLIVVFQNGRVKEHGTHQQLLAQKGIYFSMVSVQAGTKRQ
Procedure: In vitro evaluation of the substrate potential of EBO (5 µM) and M3 (5 µM) for P-gp was conducted in single transporter-transfected and non-transfected Madin–Darby canine kidney (MDCK) cells monolayers according to Absorption Systems (Exton, PA, USA) standard operating procedures (SOP). The integrity of each cell monolayer was evaluated by lucifer yellow presence.

[1] = Solubility in transport buffer; assay type: physicochemical; conditions: aqueous buffer, read-out: Soluble up to
OCT1 = target: T1, OCT1 (Homo sapiens, UniProt O15245); test: Uptake transporter inhibition in transfected HEK 293 or MDCK cells; assay type: in vitro ADME
T1 construct: expressed in transfected cells; host or cells: HEK 293 or MDCK
T1 sequence (O15245 whole entry): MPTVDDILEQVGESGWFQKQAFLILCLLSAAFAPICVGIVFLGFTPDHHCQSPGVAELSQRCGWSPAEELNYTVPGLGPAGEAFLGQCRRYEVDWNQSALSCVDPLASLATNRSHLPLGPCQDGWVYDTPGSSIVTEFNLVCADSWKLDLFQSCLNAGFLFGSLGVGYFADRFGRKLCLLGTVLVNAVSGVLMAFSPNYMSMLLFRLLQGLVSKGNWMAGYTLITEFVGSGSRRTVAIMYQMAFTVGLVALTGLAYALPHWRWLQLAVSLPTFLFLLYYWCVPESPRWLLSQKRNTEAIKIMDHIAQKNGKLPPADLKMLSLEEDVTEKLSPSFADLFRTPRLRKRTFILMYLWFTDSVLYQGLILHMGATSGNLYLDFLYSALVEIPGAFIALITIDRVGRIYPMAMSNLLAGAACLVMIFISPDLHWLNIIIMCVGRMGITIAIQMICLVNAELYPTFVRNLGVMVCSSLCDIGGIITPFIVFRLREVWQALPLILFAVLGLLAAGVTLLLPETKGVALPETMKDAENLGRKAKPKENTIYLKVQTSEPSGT
Procedure: (§1) Cell monolayers were preincubated (37 °C) for 15 to 30 min in a transport medium containing the target concentration of EBO or a specific inhibitor without substrate. Following the removal of preincubation solutions, appropriate working solutions containing EBO at the target concentration plus the probe substrate were added to the wells in triplicate. Separate sets of triplicate wells were designated for probe substrate only and probe substrate plus the specific inhibitors, to determine the maximal uptake rate and maximal inhibition of uptake, respectively. After incubation at 37 °C for each transporter, the working solution was removed from each well and the experiment was stopped by washing three times with cold (4 °C) DPBS. Depending on the substrate label, cells were either lysed for the analysis of total radioactivity (liquid scintillation counter) or LC-MS/MS methods. For measuring relative fluorescence (FLUOstar Galaxy, Cary, NC, USA), cells were not lysed.

OCT2 = target: T2, OCT2 (Homo sapiens, UniProt O15244); test: as above; assay type: in vitro ADME
T2 construct: host or cells: MDCK
T2 sequence (O15244 1-555): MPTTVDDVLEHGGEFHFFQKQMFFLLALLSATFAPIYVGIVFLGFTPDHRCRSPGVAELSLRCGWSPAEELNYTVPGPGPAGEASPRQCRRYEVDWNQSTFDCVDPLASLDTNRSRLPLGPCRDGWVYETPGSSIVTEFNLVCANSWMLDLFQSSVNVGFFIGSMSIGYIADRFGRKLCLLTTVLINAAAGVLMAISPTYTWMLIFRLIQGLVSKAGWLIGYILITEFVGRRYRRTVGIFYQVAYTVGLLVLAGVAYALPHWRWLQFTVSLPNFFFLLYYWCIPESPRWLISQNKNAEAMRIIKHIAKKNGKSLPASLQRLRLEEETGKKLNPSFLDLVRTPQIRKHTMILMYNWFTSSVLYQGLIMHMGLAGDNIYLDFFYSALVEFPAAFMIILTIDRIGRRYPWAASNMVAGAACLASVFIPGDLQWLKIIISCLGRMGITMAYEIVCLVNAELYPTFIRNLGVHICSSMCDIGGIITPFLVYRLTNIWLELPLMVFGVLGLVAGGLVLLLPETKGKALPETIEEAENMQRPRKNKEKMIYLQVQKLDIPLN
Procedure: as §1

OATP1B3 = target: T3, OATP1B3 (Homo sapiens, UniProt Q9NPD5); test: as above; assay type: in vitro ADME
T3 construct: host or cells: MDCK
T3 sequence (Q9NPD5 1-702): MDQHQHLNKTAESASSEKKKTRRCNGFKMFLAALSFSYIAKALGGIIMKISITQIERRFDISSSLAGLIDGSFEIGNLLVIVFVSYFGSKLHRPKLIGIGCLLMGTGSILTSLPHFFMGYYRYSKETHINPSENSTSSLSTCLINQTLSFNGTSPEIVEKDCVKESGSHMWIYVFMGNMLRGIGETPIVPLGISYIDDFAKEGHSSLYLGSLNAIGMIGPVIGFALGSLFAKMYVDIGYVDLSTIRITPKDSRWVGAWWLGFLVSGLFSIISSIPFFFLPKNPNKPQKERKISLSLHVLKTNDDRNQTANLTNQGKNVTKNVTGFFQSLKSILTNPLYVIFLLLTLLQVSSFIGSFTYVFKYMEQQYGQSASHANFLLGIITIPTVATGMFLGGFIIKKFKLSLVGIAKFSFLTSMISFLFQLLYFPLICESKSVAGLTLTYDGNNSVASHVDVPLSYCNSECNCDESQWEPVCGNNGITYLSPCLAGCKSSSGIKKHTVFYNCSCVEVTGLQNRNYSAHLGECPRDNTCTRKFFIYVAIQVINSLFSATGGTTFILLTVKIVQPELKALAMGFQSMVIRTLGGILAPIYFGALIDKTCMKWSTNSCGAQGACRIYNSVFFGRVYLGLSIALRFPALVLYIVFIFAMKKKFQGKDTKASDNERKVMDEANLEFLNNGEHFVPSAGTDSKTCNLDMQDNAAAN
Procedure: as §1

OAT3 = target: T4, OAT3 (Homo sapiens, UniProt Q8TCC7); test: as above; assay type: in vitro ADME; conditions: for Inhibition (in words): concentrations up to 1000 μM; for IC50: read-out: as an Inhibitor, IC50
T4 construct: host or cells: MDCK
T4 sequence (Q8TCC7 1-542): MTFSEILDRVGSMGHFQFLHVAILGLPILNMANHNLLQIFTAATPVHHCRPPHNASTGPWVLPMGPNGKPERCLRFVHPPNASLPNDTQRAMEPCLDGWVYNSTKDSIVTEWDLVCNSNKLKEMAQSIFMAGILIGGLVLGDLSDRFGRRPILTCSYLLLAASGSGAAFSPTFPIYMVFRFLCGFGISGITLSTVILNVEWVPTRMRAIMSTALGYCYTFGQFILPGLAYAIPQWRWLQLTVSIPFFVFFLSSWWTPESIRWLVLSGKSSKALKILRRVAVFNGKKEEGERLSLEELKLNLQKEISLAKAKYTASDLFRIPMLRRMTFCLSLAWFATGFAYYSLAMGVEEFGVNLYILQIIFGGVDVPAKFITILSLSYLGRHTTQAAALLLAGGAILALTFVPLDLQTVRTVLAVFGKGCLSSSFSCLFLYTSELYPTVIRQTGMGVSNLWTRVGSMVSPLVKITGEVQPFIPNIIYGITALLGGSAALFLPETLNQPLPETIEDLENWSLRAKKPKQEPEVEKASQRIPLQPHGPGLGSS
Procedure: as §1

human hepatocytes = test: Cytotoxicity in hepatocytes; conditions: EBO at 100 µM, M3 at 250 µM
Procedure: The induction potential of EBO and M3 on CYP1A2, CYP2B6, and 3A4 was evaluated by incubating the test articles with plated human hepatocytes from 3 individual donors (GKJ, ZEY, WKF) in triplicate according to WuXi AppTec (Cranbury, NJ, USA) SOP.

[2] = read-out: as an Inhibitor, IC50

Question: With `NC[C@H]1OB(O)c2c(OCCCO)cccc21` [EBO, Epetraborole] as the molecule, how does the “Concentration in the receiver compartment” value (P-gp) read?
Answer: below the lower limit of quantification

Question: And the “as a Substrate” value (P-gp)?
Answer: No

Question: And the solubility ([1]; transport buffer pH 7.4)?
Answer: 17000 µM (≈ 4030 µg/mL)

Question: And the solubility ([1]; transport buffer pH 8.5)?
Answer: 100 µM (≈ 23.7 µg/mL)

Question: What about the inhibition at 1000 µM (OCT1; human, HEK 293 or MDCK cells transfected with OCT1, probe metformin, metformin transport, at 1000 µM (maximum tested)) of the same molecule?
Answer: 59%

Question: What about the inhibition at 1000 µM (OCT2; human, probe metformin, metformin transport, at 1000 µM (maximum tested)) of the same molecule?
Answer: 20%

Question: And the inhibition at 500 µM (OATP1B3; human, HEK 293 or MDCK cells transfected with OATP1B3, at 500 µM)?
Answer: 21%

Question: And the “Inhibition (in words)” value (OAT3)?
Answer: did not inhibit

Question: What about the IC50 (OAT3) of the same molecule?
Answer: > 1000 µM

Question: And the “Cytotoxicity (>20%)” value (human hepatocytes)?
Answer: did not induce cytotoxicity (>20%)

Question: Which results are given for `NC[C@H]1OB(O)c2c(OCCC(=O)O)cccc21` [M3]?
Answer: Concentration in the receiver compartment (P-gp): below the lower limit of quantification; as a Substrate (P-gp): No; solubility ([1]; transport buffer pH 7.4): 250 µM (≈ 62.8 µg/mL); solubility ([1]; transport buffer pH 8.5): 250 µM (≈ 62.8 µg/mL); IC50 (OCT1; [2]): > 250 µM; IC50 (OCT2; [2]): > 250 µM; IC50 (OATP1B3; [2]): > 250 µM; Inhibition (in words) (OAT3): did not inhibit; IC50 (OAT3): > 1000 µM; Cytotoxicity (>20%) (human hepatocytes): did not induce cytotoxicity (>20%)
